Assay: refractive index (Na D-line) (dimensionless); xn = mol fraction of the nth substance listed
Details: 101 kPa, Liquid, Standard Abbe refractometry

CC(C)CCl [1-chloro-2-methylpropane] + CC(C)OC(C)C
refractive index
Details	283.15 K	288.15 K	293.15 K	298.15 K	303.15 K	308.15 K	313.15 K
x1 = 0.0549	1.37495	1.37221	1.36949	1.36663	1.36379	1.36095	1.35806
x1 = 0.091	1.3759	1.37316	1.37043	1.36757	1.36474	1.36188	1.359
x1 = 0.1977	1.37869	1.37595	1.37322	1.37038	1.36754	1.36469	1.36182
x1 = 0.2934	1.38128	1.37855	1.37581	1.37298	1.37015	1.3673	1.36444
x1 = 0.3911	1.38404	1.38131	1.37857	1.37575	1.37292	1.37008	1.36723
x1 = 0.5137	1.38762	1.38488	1.38213	1.37932	1.37649	1.37365	1.37081
x1 = 0.6034	1.39034	1.3876	1.38484	1.38205	1.37922	1.37638	1.37354
x1 = 0.6769	1.39263	1.38989	1.38713	1.38435	1.38152	1.37868	1.37585
x1 = 0.8059	1.3968	1.39405	1.39129	1.38852	1.38568	1.38285	1.38003
x1 = 0.9111	1.40038	1.39764	1.39487	1.39212	1.38928	1.38645	1.38364
x1 = 0.9646	1.40226	1.39951	1.39674	1.394	1.39116	1.38833	1.38553

CC(C)(C)Cl [2-chloro-2-methylpropane] + CC(C)OC(C)C
refractive index
Details	283.15 K	288.15 K	293.15 K	298.15 K	303.15 K	308.15 K	313.15 K
x1 = 0.049	1.37426	1.37152	1.36878	1.36591	1.36307	1.36021	1.35731
x1 = 0.0996	1.37498	1.37223	1.36948	1.36661	1.36376	1.36089	1.35799
x1 = 0.1991	1.37645	1.37368	1.37091	1.36803	1.36516	1.36228	1.35936
x1 = 0.3212	1.37834	1.37555	1.37275	1.36986	1.36697	1.36407	1.36114
x1 = 0.4189	1.37994	1.37712	1.37431	1.3714	1.3685	1.36559	1.36263
x1 = 0.5148	1.38157	1.37874	1.3759	1.37299	1.37006	1.36713	1.36416
x1 = 0.6213	1.38348	1.38063	1.37775	1.37483	1.37189	1.36894	1.36595
x1 = 0.7152	1.38524	1.38237	1.37947	1.37654	1.37357	1.37061	1.3676
x1 = 0.8138	1.38719	1.3843	1.38137	1.37843	1.37543	1.37245	1.36942
x1 = 0.9079	1.38915	1.38623	1.38327	1.38031	1.3773	1.3743	1.37125
x1 = 0.9552	1.39016	1.38723	1.38426	1.3813	1.37827	1.37526	1.3722

CCC(C)Cl (stereo not drawn) [2-chlorobutane] + CC(C)OC(C)C
refractive index
Details	283.15 K	288.15 K	293.15 K	298.15 K	303.15 K	308.15 K	313.15 K
x1 = 0.0519	1.37477	1.37203	1.36931	1.36644	1.36361	1.36077	1.35788
x1 = 0.0988	1.37587	1.37314	1.37041	1.36756	1.36473	1.36189	1.359
x1 = 0.2006	1.37839	1.37566	1.37294	1.37009	1.36727	1.36443	1.36155
x1 = 0.3211	1.38155	1.37883	1.3761	1.37326	1.37044	1.3676	1.36473
x1 = 0.4201	1.38427	1.38154	1.37882	1.37599	1.37317	1.37033	1.36746
x1 = 0.532	1.38745	1.38472	1.38199	1.37917	1.37636	1.37353	1.37067
x1 = 0.6244	1.39016	1.38743	1.3847	1.38189	1.37908	1.37626	1.3734
x1 = 0.726	1.39324	1.39051	1.38778	1.38498	1.38218	1.37936	1.37651
x1 = 0.8163	1.39608	1.39336	1.39063	1.38784	1.38505	1.38224	1.3794
x1 = 0.8817	1.39819	1.39548	1.39275	1.38997	1.38719	1.38438	1.38154
x1 = 0.9634	1.40097	1.39825	1.39552	1.39276	1.38997	1.38716	1.38434

CCCCCl [1-chlorobutane] + CC(C)OC(C)C
refractive index
Details	283.15 K	288.15 K	293.15 K	298.15 K	303.15 K	308.15 K	313.15 K
x1 = 0.0466	1.37486	1.37213	1.36941	1.36656	1.36373	1.36088	1.35801
x1 = 0.0991	1.37637	1.37364	1.37092	1.36807	1.36525	1.3624	1.35953
x1 = 0.1918	1.37915	1.37643	1.37372	1.3709	1.36808	1.36524	1.3624
x1 = 0.32	1.38331	1.38059	1.37788	1.37509	1.37227	1.36944	1.36662
x1 = 0.4199	1.38643	1.38374	1.38104	1.37827	1.37544	1.37262	1.36983
x1 = 0.516	1.38968	1.38698	1.38428	1.38153	1.37872	1.37592	1.37315
x1 = 0.623	1.39338	1.39068	1.38799	1.38527	1.38246	1.37967	1.37693
x1 = 0.7154	1.39669	1.39399	1.3913	1.38859	1.3858	1.38301	1.38028
x1 = 0.8157	1.40037	1.39768	1.39499	1.39231	1.38954	1.38677	1.38407
x1 = 0.9098	1.40395	1.40125	1.39856	1.39594	1.39315	1.3904	1.38773
x1 = 0.9559	1.40572	1.40303	1.40034	1.3977	1.39493	1.39216	1.38952
